The record followed here is patent publication US20120046273A1, “COMPOUNDS AND COMPOSITIONS FOR COGNITION-ENHANCEMENT, METHODS OF MAKING, AND METHODS OF TREATING” (MITHRIDION, INC., priority 2009, published 2012).

Structures are written as SMILES.

In data set [1] the target is T1, human muscarinic M1 receptors (Homo sapiens, UniProt P11229).
T1 construct: expressed in transfected cells; host or cells: A9L cells (gift from Professor W Messer)
T1 sequence (P11229 1-460): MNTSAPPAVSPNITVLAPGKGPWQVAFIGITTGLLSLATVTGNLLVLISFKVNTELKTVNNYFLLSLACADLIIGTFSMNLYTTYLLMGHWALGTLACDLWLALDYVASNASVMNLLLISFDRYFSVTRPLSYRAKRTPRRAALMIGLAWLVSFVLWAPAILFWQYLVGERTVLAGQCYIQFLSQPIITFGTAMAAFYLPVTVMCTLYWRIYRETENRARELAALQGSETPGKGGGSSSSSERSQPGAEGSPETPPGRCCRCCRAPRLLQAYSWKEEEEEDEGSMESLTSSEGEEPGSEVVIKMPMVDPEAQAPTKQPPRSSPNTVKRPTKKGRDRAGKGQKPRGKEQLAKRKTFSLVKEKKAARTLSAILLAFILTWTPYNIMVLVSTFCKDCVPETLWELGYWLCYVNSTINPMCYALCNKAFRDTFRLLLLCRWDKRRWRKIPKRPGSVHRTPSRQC
Nature of the data set: Inositol phosphate production in huM1/A9L cells (IPOne TR-FRET). Type of data set: cell-based. To be noted: for huM1/A9L Smax: percentage of maximal stimulation by carbachol; for huM1/A9L ED50 relative to CCh: potency relative to carbachol. As for the experimental part: (§1) Muscarinic M1 and M3 agonist activity was evaluated by measuring the stimulation of inositol phosphate (IP) production in the presence of lithium chloride from A9L cells transfected with expression plasmids containing human muscarinic M1 and M3 receptors, respectively. The cell lines were a gift from Professor W Messer, and the methods were as described in Tejada F R et al. J. Med. Chem. 2006; 49: 7518-31 except that the assay was scaled down to run in 384 well plates, and IP was measured in the cell lysates using the non-isotopic IPOne TR-FRET assay (CIS-BIO, Inc).
(§2) Cells were grown to 90% confluence in 384 well hi-base plates (Greiner Bio-One), compounds were added at suitable concentrations in growth medium containing 10 mM LiCL, buffered with an extra 10 mM HEPES (pH7.4), and incubated for 60 minutes at 37° C. Cells were lysed and assayed for IP following the manufacturer's instructions.
(§3) The value for a full agonist is 100%, while partial agonists give values below 100%.
A general note: TR-FRET usually uses a lanthanide donor and a delayed reading to cut background.

In data set [2] the target is T2, human muscarinic M3 receptors (Homo sapiens, UniProt P20309).
T2 construct: expressed in transfected cells; host or cells: A9L cells (gift from Professor W Messer)
T2 sequence (P20309 whole entry): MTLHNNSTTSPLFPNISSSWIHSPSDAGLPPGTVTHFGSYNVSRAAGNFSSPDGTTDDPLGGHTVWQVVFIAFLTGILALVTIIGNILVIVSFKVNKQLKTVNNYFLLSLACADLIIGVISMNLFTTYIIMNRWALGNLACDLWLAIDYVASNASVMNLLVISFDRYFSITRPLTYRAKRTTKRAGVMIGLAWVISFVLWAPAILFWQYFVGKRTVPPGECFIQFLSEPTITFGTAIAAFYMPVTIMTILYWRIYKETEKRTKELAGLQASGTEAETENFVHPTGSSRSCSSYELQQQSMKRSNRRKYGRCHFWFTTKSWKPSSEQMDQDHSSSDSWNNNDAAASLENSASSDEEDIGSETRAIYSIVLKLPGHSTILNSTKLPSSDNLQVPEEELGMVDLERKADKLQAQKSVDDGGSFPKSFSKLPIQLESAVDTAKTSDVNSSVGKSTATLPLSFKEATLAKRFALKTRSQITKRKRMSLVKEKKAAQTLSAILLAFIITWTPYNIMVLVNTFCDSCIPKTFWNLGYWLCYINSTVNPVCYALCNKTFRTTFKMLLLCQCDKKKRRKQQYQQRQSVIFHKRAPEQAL
Nature of the data set: Inositol phosphate production in huM3/A9L cells (IPOne TR-FRET). Format: cell-based. To be noted: for huM3/A9L Smax: percentage of maximal stimulation by carbachol; for huM3/A9L ED50 relative to CCh: potency relative to carbachol. The protocol: as §1, §2, §3

Data set [3] deals with apomorphine induced climbing. Nature of the data set: Apomorphine induced climbing model of psychosis. Type of data set: in vivo, CD-I mice. As to conditions: mice, sc. As for the experimental part: As described in Costall et. al. European Journal of Pharmacology 1978, 50, 39. individual CD-I mice, 1-2 months old, were placed in a cylindrical wire mesh cage (13.2 cm high×13.2 cm diameter) constructed of steel wire 1 mm thick spaced at 1.2 cm^2. Cylinders were placed in a standard OptiMICE mouse cage (29×32×9×29 cm wide and 14 cm high) with adequate wood chip bedding provided. Observations of climbing (defined as 3 or more paws off the ground) were carried out every 5 minutes at a duration of 1 minute for 30 minutes. Animals were injected subcutaneously under isoflurane anesthesia with test compounds, reference compounds, which included clozapine, haloperidol, olanzapine and xanomeline, or PBS as a control. This was followed 5 minutes later by 2 mg/kg apomorphine hydrochloride. All drugs were dissolved in PBS or a mixture of (by volume) 96% PBS and 4% hydroxypropyl-beta-cyclodextrin, and dosed at a rate of 5 ml per kilogram of body weight. Following injections, animals were replaced in the mesh cages and observed for climbing (defined as 3 or more paws off the ground) every 5 minutes for a duration of 1 minute for 60 minutes after dosing.

The subject of data set [4] is pooled male Sprague-Dawley rat liver microsomes. Nature of the data set: Metabolism by rat liver microsomes. Format: in vitro ADME. As to conditions: 6 hours incubation. The protocol: Compounds were incubated with pooled male Sprague-Dawley rat liver microsomes (BD Biosciences, #452501) and an NADP-regenerating system in a phosphate buffer (pH 7.4) for a total of 6 hours. Aliquots were removed every 2 hours, and 1% formic acid was added to halt the reaction. Samples were centrifuged, filtered through 0.2 micron spinfilter and the amount of each compound in the supernatants was quantitated using LC/MS/MS.
(Microsomes from liver hold many membrane-bound enzymes, among them those of drug oxidation.)

Data set [5] relates to pooled male human liver microsomes. Nature of the data set: Metabolism by human liver microsomes. Format: in vitro ADME. As to conditions: for extent of metabolism in human liver microsomes: 6 hours incubation; for rate of metabolism compared with the other enantiomer: human liver microsomes, as also in rat liver microsomes and FMO Supersomes. The protocol: Compounds were incubated with pooled male human liver microsomes (BD Biosciences, #452172) and an NADP-regenerating system in a phosphate buffer (pH 7.4) for a total of 6 hours. Aliquots were removed every 2 hours, and 1% formic acid was added to halt the reaction. Samples were centrifuged, filtered through 0.2 micron spinfilter and the amount of each compound in the supernatants was quantitated using LC/MS/MS.

The nature of data set [6]: PAMPA test. (The PAMPA barrier holds no transporters, so it reflects passive diffusion.)

As to `[2H]C([2H])([2H])c1noc(C2CCCNC2)n1` (single isomer, unassigned) [Compound 89, 3-(methyl-d3)-5-(piperidin-3-yl)-1,2,4-oxadiazole], in data set [1], the “huM1/A9L Smax” value was determined as 90% and the “huM1/A9L ED50 relative to CCh” value is on record as “+ (potency 2-10x CCh)”. For the same compound, in data set [2], the “huM3/A9L Smax” value was found to be 86% and the “huM3/A9L ED50 relative to CCh” value is listed as “+/− (potency 0.5-2x CCh)”. Further, the “activity in the apomorphine induced climbing model” value in data set [3] was “potent and effective”. In data set [4], the “extent of metabolism in rat liver microsomes” value was “far more stable than compounds 126 and 127”. Moreover, in data set [5], the “extent of metabolism in human liver microsomes” value is on record as “metabolized significantly less in human liver microsomes than in rat liver microsomes” and the “rate of metabolism compared with the other enantiomer” value is “metabolized faster than the enantiomers”.

As to `Cc1noc([C@@H]2CCCN[C@@H]2C)n1` [Compound 108], in data set [1], the “huM1/A9L Smax” value is reported as 41% and the “huM1/A9L ED50 relative to CCh” value is reported as “−− (potency <0.1x CCh)”. Moreover, in data set [2], the “huM3/A9L Smax” value was 32% and the “huM3/A9L ED50 relative to CCh” value was “inactive”.

Regarding `Cc1noc(C2CCNC2)n1` (stereo not shown) [Compound 115, 3-methyl-5-(pyrrolidin-3-yl)-1,2,4-oxadiazole], the “huM1/A9L ED50 relative to CCh” value in data set [1] is listed as “+ (potency 2-10x CCh)”. Also, the “huM3/A9L ED50 relative to CCh” value in data set [2] is reported as “− (potency <0.5-0.1x CCh)”.

In the case of `Cc1noc(C2CCCN(C)C2)n1` (stereo not shown) [Compound 86, 3-Methyl-5-(1-methylpiperidin-3-yl)-1,2,4-oxadiazole], in data set [1], the “huM1/A9L Smax” value worked out at 20% and the “huM1/A9L ED50 relative to CCh” value was “inactive”. In data set [2], the “huM3/A9L Smax” value is 20% and the “huM3/A9L ED50 relative to CCh” value is “inactive”.

On to `Cc1noc(C2CCCNC2)n1` (single isomer, unassigned) [Compound 83, 3-methyl-5-(piperidin-3-yl)-1,2,4-oxadiazole], for which, in data set [1], the “huM1/A9L Smax” value came to 147% and the “huM1/A9L ED50 relative to CCh” value was “+/− (potency 0.5-2x CCh)”. For the same compound, in data set [2], the “huM3/A9L Smax” value worked out at 47% and the “huM3/A9L ED50 relative to CCh” value is “− (potency <0.5-0.1x CCh)”. The “activity in the apomorphine induced climbing model” value in data set [3] is “potent and effective”. In addition, the “extent of metabolism in rat liver microsomes” value in data set [4] was “far more stable than compounds 126 and 127”. For the same compound, in data set [5], the “extent of metabolism in human liver microsomes” value is “metabolized significantly less in human liver microsomes than in rat liver microsomes” and the “rate of metabolism compared with the other enantiomer” value is reported as “metabolized faster than the enantiomers”.

Turning to `Cc1noc([C@@H]2CNC[C@@H](C)C2)n1` [Compound 105], in data set [1], the “huM1/A9L Smax” value is given as 18% and the “huM1/A9L ED50 relative to CCh” value is “inactive”. Besides, in data set [2], the “huM3/A9L Smax” value was determined as 14% and the “huM3/A9L ED50 relative to CCh” value is “inactive”.

As for `Cc1noc(C2CCCNC2)n1` (single isomer, unassigned) [Compound 84, 3-methyl-5-(piperidin-3-yl)-1,2,4-oxadiazole], in data set [1], the “huM1/A9L Smax” value is given as 129% and the “huM1/A9L ED50 relative to CCh” value is reported as “+ (potency 2-10x CCh)”. Besides, in data set [2], the “huM3/A9L Smax” value is recorded as 66% and the “huM3/A9L ED50 relative to CCh” value is listed as “+/− (potency 0.5-2x CCh)”. For the same compound, the “extent of metabolism in rat liver microsomes” value in data set [4] was “far more stable than compounds 126 and 127”. Moreover, the “extent of metabolism in human liver microsomes” value in data set [5] is “metabolized significantly less in human liver microsomes than in rat liver microsomes”.

As for `Cc1noc(C2CCC(C)NC2)n1` (stereo not shown) [Compound 102, 3-Methyl-5-(6-methylpiperidin-3-yl)-1,2,4-oxadiazole], in data set [1], the “huM1/A9L Smax” value was 14% and the “huM1/A9L ED50 relative to CCh” value is “inactive”. Also, in data set [2], the “huM3/A9L Smax” value is recorded as 18% and the “huM3/A9L ED50 relative to CCh” value is “inactive”.

As to `Cc1noc([C@H]2CNC[C@@H](C)C2)n1` [Compound 104], in data set [1], the “huM1/A9L Smax” value is 9% and the “huM1/A9L ED50 relative to CCh” value is “inactive”. In data set [2], the “huM3/A9L Smax” value was found to be 20% and the “huM3/A9L ED50 relative to CCh” value is “inactive”.

On to `Cc1noc([C@H]2CC[C@H](C)NC2)n1` [Compound 103], for which, in data set [1], the “huM1/A9L Smax” value was found to be 15% and the “huM1/A9L ED50 relative to CCh” value was “inactive”. For the same compound, in data set [2], the “huM3/A9L Smax” value is 34% and the “huM3/A9L ED50 relative to CCh” value was “inactive”.

With `CCc1noc(C2CCCNC2)n1` (stereo not shown) [Compound 128, 3-ethyl-5-(piperidin-3-yl)-1,2,4-oxadiazole, reference compound], in data set [1], the “huM1/A9L Smax” value came out at 15% and the “huM1/A9L ED50 relative to CCh” value is “inactive”. Also, in data set [2], the “huM3/A9L Smax” value was less than 14% and the “huM3/A9L ED50 relative to CCh” value is “inactive”.

For the compound `Cc1noc([C@H]2CCCN[C@@H]2C)n1` [Compound 109], in data set [1], the “huM1/A9L Smax” value was determined as 3% and the “huM1/A9L ED50 relative to CCh” value was “inactive”. Also, in data set [2], the “huM3/A9L Smax” value was found to be 20% and the “huM3/A9L ED50 relative to CCh” value is “inactive”.

In the case of `[2H]C([2H])([2H])c1noc(C2CCCNC2)n1` (single isomer, unassigned) [Compound 90, 3-(methyl-d3)-5-(piperidin-3-yl)-1,2,4-oxadiazole], in data set [1], the “huM1/A9L Smax” value is given as 81% and the “huM1/A9L ED50 relative to CCh” value was “+/− (potency 0.5-2x CCh)”. In data set [2], the “huM3/A9L Smax” value turned out to be 76% and the “huM3/A9L ED50 relative to CCh” value was “−− (potency <0.1x CCh)”. In data set [4], the “extent of metabolism in rat liver microsomes” value was “far more stable than compounds 126 and 127”. For the same compound, in data set [5], the “extent of metabolism in human liver microsomes” value is given as “metabolized significantly less in human liver microsomes than in rat liver microsomes”.

As to `Cc1noc(C2(F)CCCNC2)n1` (stereo not shown) [Compound 118, 5-(3-fluoropiperidin-3-yl)-3-methyl-1,2,4-oxadiazole], in data set [1], the “huM1/A9L ED50 relative to CCh” value is given as “− (potency <0.5-0.1x CCh)”. The “huM3/A9L ED50 relative to CCh” value in data set [2] is “−− (potency <0.1x CCh)”. In data set [6], the “PAMPA (? × 106)” value is recorded as 16.3 ? × 106 and the “rate of crossing the lipid layer in the PAMPA test” value is on record as “highest rate of penetration”.

Consider `Nc1noc(C2CCCNC2)n1` (stereo not shown) [Compound 111, 3-Amino-5-(piperidin-3-yl)-1,2,4-oxadiazole], for which, in data set [1], the “huM1/A9L Smax” value was 97% and the “huM1/A9L ED50 relative to CCh” value is “+ (potency 2-10x CCh)”. Also, in data set [2], the “huM3/A9L Smax” value worked out at 20% and the “huM3/A9L ED50 relative to CCh” value is “+/− (potency 0.5-2x CCh)”.
